This assay relates to Radical scavenging activity. The assay can be described thus: Antioxidant activity assessed as DPPH free radical scavenging activity by TLC autographic assay. In kind it is functional. For orientation: Loss of DPPH colour is used to gauge radical scavenging.

The source made the active and inactive calls. No cut-off for these calls is given here.

With `C[C@@H]1O[C@@H](O[C@@H]2[C@@H](O)[C@H](OCCc3ccc(O)c(O)c3)O[C@H](CO)[C@H]2OC(=O)/C=C/c2ccc(O)c(O)c2)[C@H](O)[C@H](O)[C@H]1O`, the result was Active.

For the molecule `C[C@@H]1O[C@@H](O[C@@H]2[C@@H](O)[C@H](OCCc3ccc(O)c(O)c3)O[C@H](CO)[C@H]2OC(=O)/C=C/c2ccc(O)c(O)c2)[C@H](O)[C@H](O)[C@H]1O[C@@H]1OC[C@@H](O)[C@H](O)[C@H]1O`, the result was Active.

As for `C[C@@H]1O[C@@H](O[C@@H]2[C@@H](O)[C@H](OCCc3ccc(O)c(O)c3)O[C@H](CO[C@@H]3OC[C@@H](O)[C@H](O)[C@H]3O)[C@H]2OC(=O)/C=C/c2ccc(O)c(O)c2)[C@H](O)[C@H](O)[C@H]1O[C@@H]1OC[C@@H](O)[C@H](O)[C@H]1O`, the outcome was Active.

Regarding `C[C@@H]1O[C@@H](O[C@@H]2[C@@H](O)[C@H](OCCc3ccc(O)c(O)c3)O[C@H](CO)[C@H]2OC(=O)/C=C/c2ccc(O)c(O)c2)[C@H](O)[C@H](O)[C@H]1O[C@@H]1O[C@H](CO)[C@@H](O)[C@H](O)[C@H]1O`, the result was Active.

In the case of `C[C@@H]1O[C@@H](O[C@@H]2[C@H]3O[C@@H](c4ccc(O)c(O)c4)CO[C@@H]3O[C@H](CO)[C@H]2OC(=O)/C=C/c2ccc(O)c(O)c2)[C@H](O)[C@H](O)[C@H]1O`, the result was Active.
